Measured values: US20240366594A1, “Small Molecule Inhibitors of Formation of Neutrophil-Derived Extracellular Traps (NETosis) and Uses Thereof” (The Brigham and Women's Hospital, Inc., priority 2021, published 2024)

Experiments:
[1] = test system: neutrophils that lack HDAC6; assay: NET induction in PMA-stimulated neutrophils from HDAC6KO mice; format: cell-based, mouse; conditions: ricolinostat 10, 2, 0.4, 0.08 μM, then PMA; FIG. 5G
Protocol: (§1) FIGS. 5A-J. Class I/II HDACs drive NET formation. • A) Quantification of extracellular DNA released by neutrophils treated, or not, with 1 μM GSK484 for 1 h and then stimulated with 1 μM PMA for 4 hours. Unstimulated, neutrophils not treated with drugs were used as a control. • B) Freshly purified human neutrophils were treated with the indicated HDAC inhibitors at different doses (0.08, 0.4, 2 and 10 μM) for 1 hour. Extracellular DNA release was assessed in the supernatant 3 hours after PMA stimulation. The dotted line represents the amount of DNA released from neutrophils treated with PMA alone. […] NETosis induction was measured as level of anti-CitH3 fluorescent signal. […] NET induction was measured as in (C). […] NETosis induction was measured as level of anti-CitH3 fluorescent signal. […] NET induction was measured as in (F). • H, I) Freshly isolated neutrophils from two different donors were treated with different doses of ricolinostat, citarinostat (10, 2, 0.4, 0.08 μM) or GSK484 (10, 5, 2 μM) for 1 h and then stimulated with 1 μM PMA. NET induction was measured as level of anti-CitH3 fluorescent signal (H) and by microscopy as number of cells positive for CitH3 signal per field of view (FOV) (I). […] NET induction was measured as level of anti-CitH3 fluorescent signal. […] Statistics were calculated using One-way ANOVA (A, E, I) and Two-way ANOVA (B, F, G, H, L). […]

[2] = test system: Murine neutrophils; assay: NET induction in response to nigericin in murine neutrophils; format: cell-based, mouse; set-up: dose or concentration left out as unconfirmed; conditions: nigericin for 3 hours; FIG. 5E
Protocol: as §1

SMILES: O=C(CCCCCCNC(=O)c1cnc(N(c2ccccc2)c2ccccc2)nc1)NO [ricolinostat]
- NET induction in HDAC6-lacking neutrophils [1]: remained sensitive
- NET induction in response to nigericin (anti-CitH3 signal) [2]: inhibited NET induction
